# Source: US11485708B2, “Compounds for treatment of PD-L1 diseases” (CHEMOCENTRYX, INC., priority 2019, dated 2022)
# Target: human PD-L1 / Human PD-1 (Homo sapiens (Human), UniProt Q9NZQ7)
# Assay: Enzyme-Linked Immunosorbent Assay (ELISA), PD-1/PD-L1 binding
# Conditions: plates coated with human PD-L1, biotinylated human PD-1 added
# Procedure: 96 Well plates were coated with 1 μg/mL of human PD-L1 (obtained from R&D) in PBS overnight at 4′° C. The wells were then blocked with 2% BSA in PBS (W/V) with 0.05% TWEEN-20 for 1 hour at 37′° C. The plates were washed 3 times with PBS/0.05% TWEEN-20 and the compounds were serial diluted (1:5) in dilution medium and added to the ELISA plates. Human PD-1 and biotin 0.3 μg/mL (ACRO Biosystems) were added and incubated for 1 hour at 37° C. then washed 3 times with PBS/0.05% TWEEN-20. A second block was performed with 2% BSA in PBS (WNV)/0.05% TWEEN-20 for 10 min at 37° C. and the plates were washed 3 times with PBS/0.05% TWEEN-20. Streptavidin-HIRP was added for 1 hour at 37° C. then the plates were washed 3 times with PBS/0.05% TWEEN-20. TMB substrate was added and reacted for 20 min at 37° C. A stop solution (2 N aqueous H2SO4) was added. The absorbance was read at 450 nm using a micro-plate spectrophotometer.
# Chain of human PD-L1 / Human PD-1 (Q9NZQ7 19-239): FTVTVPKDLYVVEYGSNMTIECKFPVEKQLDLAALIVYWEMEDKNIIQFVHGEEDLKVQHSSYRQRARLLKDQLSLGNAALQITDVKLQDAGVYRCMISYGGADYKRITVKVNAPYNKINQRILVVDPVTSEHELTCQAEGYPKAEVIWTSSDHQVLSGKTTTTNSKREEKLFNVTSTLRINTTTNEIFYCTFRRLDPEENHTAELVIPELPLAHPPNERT
row,Compound,IC50
1,COc1cc(-c2cccc(-c3cccc(-c4cc(F)c(CNCCO)c(OC)c4)c3C)c2C)cc(F)c1CN [Compd 1.035],< 1000 nM
2,COc1cc(-c2cccc(-c3cc(F)c(CN)c(OC)c3)c2C)ccc1F [Compd 1.021],1000 to 10000 nM
3,Cc1c(OCCCN2[C@H](C)CC[C@H]2C)cccc1-c1cccc(-c2ccc3c(c2)CC(C(=O)O)NC3)c1C (stereo partly drawn) [Compd 1.064],1000 to 10000 nM
4,COc1cc(-c2cccc(-c3cccc(-c4cc(F)c(CNCCC(=O)O)c(OC)c4)c3C)c2C)cc(F)c1CNCCC(=O)O [Compd 1.055],< 1000 nM
5,COc1cc(-c2cccc(-c3cccc(OCCCN4[C@H](C)CC[C@H]4C)c3C)c2C)ccc1CN(C)C [Compd 1.073],< 1000 nM
6,"COc1cc(-c2cccc(-c3cccc(NC4CCNCC4)c3C)c2C)cc(F)c1CN [Compd 1.003, N-(4″-(aminomethyl)-3″-fluoro-5″-methoxy-2,2′-dimethyl-[1,1′:3′,1″-terphenyl]-3-yl)piperidin-4-amine]",< 1000 nM
7,COc1cc(-c2cccc(-c3cccc(OCCCN4[C@H](C)CC[C@H]4C)c3C)c2C)cc(F)c1CNCCCC(=O)O [Compd 1.067],< 1000 nM
8,"COc1cc(-c2cccc(-c3cccc(-c4cc(F)c(CNCCO)c(OC)c4)c3C)c2C)cc(F)c1CNCCO [Compd 1.051, 2,2′-(((3,3′″-difluoro-5,5′″-dimethoxy-2′,2″-dimethyl-[1,1′:3′,1″:3″,1′″-quaterphenyl]-4,4′″-diyl)bis(methylene))bis(azanediyl))bis(ethan-1-ol)]",< 1000 nM
9,Cc1c(OCCCN2[C@H](C)CC[C@H]2C)cccc1-c1cccc(-c2ccc(CN(C)C)c(OC(C)C)c2)c1C [Compd 1.074],< 1000 nM
10,COc1ccc(-c2cccc(-c3cc(F)c(CN)c(OC)c3)c2C)c(F)c1 [Compd 1.030],1000 to 10000 nM
11,COc1cc(-c2cccc(-c3cccc(-n4ccnc4)c3C)c2C)cc(F)c1CN1CC(C(=O)O)C1 [Compd 1.006],1000 to 10000 nM
12,COc1cc(-c2cccc(-c3cccc(-c4cc(F)c(CNCCCCO)c(OC)c4)c3C)c2C)cc(F)c1CNCCCCO [Compd 1.049],< 1000 nM
13,COc1cc(-c2cccc(-c3cccc(-c4cc(F)c(CN[C@@H]5CCC[C@@H]5O)c(OC)c4)c3C)c2C)cc(F)c1CN[C@@H]1CCC[C@@H]1O [Compd 1.046],< 1000 nM
14,"COC(=O)C1=Cc2cc(-c3cccc(-c4cc(F)c(CN)c(OC)c4)c3C)ccc2OC1 [Compd 1.016, Methyl 6-(4′-(aminomethyl)-3′-fluoro-5′-methoxy-2-methyl-[1,1′-biphenyl]-3-yl)-2H-chromene-3-carboxylate]",< 1000 nM
15,COc1ccc(-c2cccc(-c3cc(F)c(CN)c(OC)c3)c2C)cc1F [Compd 1.025],1000 to 10000 nM
16,COc1cc(-c2cccc(-c3cccc(-c4cc(F)c(CNCC(=O)O)c(OC)c4)c3C)c2C)cc(F)c1CNCC(=O)O [Compd 1.062],< 1000 nM
17,"COc1cc(-c2cccc(-c3cccc(-c4cc(F)c(CNCCS(=O)(=O)O)c(OC)c4)c3C)c2C)cc(F)c1CNCCS(=O)(=O)O [Compd 1.041, 2,2′-(((3,3′″-difluoro-5,5′″-dimethoxy-2′,2″-dimethyl-[1,1′:3′,1″:3″,1′″-quaterphenyl]-4,4′″-diyl)bis(methylene))bis(azanediyl))bis(ethane-1-sulfonic Acid)]",< 1000 nM
18,"COc1cc(-c2cccc(-c3cccc(-c4cc(F)c(CNCCCC(=O)O)c(OC)c4)c3C)c2C)cc(F)c1CNCCCC(=O)O [Compd 1.063, 4,4′-(((3,3′″-difluoro-5,5′″-dimethoxy-2′,2″-dimethyl-[1,1′:3′,1″:3″,1′″-quaterphenyl]-4,4′″-diyl)bis(methylene))bis(azanediyl))dibutyric acid]",< 1000 nM
19,CNCc1c(F)cc(-c2cccc(-c3cccc(-c4cc(F)c(CNC)c(OC)c4)c3C)c2C)cc1OC [Compd 1.053],< 1000 nM
20,COc1cc(-c2cccc(-c3cccc(OC4CCCNC4)c3C)c2C)cc(F)c1CN (stereo not drawn) [Compd 1.014],1000 to 10000 nM
21,COc1cc(-c2cccc(-c3cccc(-c4cc(F)c(CNCCCCC(=O)O)c(OC)c4)c3C)c2C)cc(F)c1CNCCCCC(=O)O [Compd 1.054],< 1000 nM
22,COc1cc(-c2cccc(-c3cccc(-c4cc(F)c(CNCCCO)c(OC)c4)c3C)c2C)cc(F)c1CNCCCO [Compd 1.056],< 1000 nM

# Second part, the compound after the results:
row,IC50,Compound
1,< 1000 nM,Cc1c(OCCCN2CCC(F)CC2)cccc1-c1cccc(-c2ccc(CN)c(F)c2)c1C [Compd 1.086]
2,< 1000 nM,Cc1c(OCCCN2[C@H](C)CC[C@H]2C)cccc1-c1cccc(-c2ccc3c(c2)CCN(CC(=O)O)C3)c1C [Compd 1.108]
3,< 1000 nM,"Cc1c(OCCCN2CCC2(C)C)cccc1-c1cccc(-c2ccc3c(c2)CCNC3)c1C#N [Compd 1.102, 3′-(3-(2,2-dimethylazetidin-1-yl)propoxy)-2′-methyl-3-(1,2,3,4-tetrahydroisoquinolin-6-yl)-[1,1′-biphenyl]-2-carbonitrile]"
4,1000 to 10000 nM,"COc1cccc(-c2cccc(-c3ccc4c(c3)CCNC4)c2C)c1 [Compd 1.116, 6-(3′-methoxy-2-methyl-[1,1′-biphenyl]-3-yl)-1,2,3,4-tetrahydroisoquinoline]"
5,< 1000 nM,Cc1c(OCCCN2[C@H](C)CC[C@H]2C)cccc1-c1cccc(-c2ccc([C@H](C)N)cc2)c1C [Compd 1.098]
6,< 1000 nM,Cc1c(OCCCN2CCC(F)CC2)cccc1-c1cccc(-c2ccc3c(c2)OCCNC3)c1C [Compd 1.080]
7,< 1000 nM,Cc1c(OCCCN2[C@H](C)CC[C@H]2C)cccc1-c1cccc(-c2ccc(CN)cc2)c1C [Compd 1.121]
8,1000 to 10000 nM,Cc1c(OCCCN2CCC(F)CC2)cccc1-c1cccc(-c2ccc3c(c2C)CCNC3)c1C [Compd 1.087]
9,< 1000 nM,COc1cc(-c2cccc(-c3cccc(OCCCN4CCC(F)CC4)c3C)c2C)ccc1CN(C)C [Compd 1.094]
10,< 1000 nM,"C=Cc1c(-c2ccc3c(c2)CCNC3)cccc1-c1cccc(OCCCN2CCC2(C)C)c1C [Compd 1.076, 6-(3′-(3-(2,2-dimethylazetidin-1-yl)propoxy)-2′-methyl-2-vinyl-[1,1′-biphenyl]-3-yl)-1,2,3,4-tetrahydroisoquinoline]"
11,< 1000 nM,Cc1c(-c2ccc3c(c2)CCNC3)cccc1-c1cccc(OCCCN2[C@H](C)CC[C@H]2C)c1F [Compd 1.091]
12,< 1000 nM,Cc1c(OCCCN2[C@H](C)CC[C@H]2C)cccc1-c1cccc(-c2ccc(C(C)N)cc2)c1C (stereo partly drawn) [Compd 1.113]
13,< 1000 nM,Cc1c(OCCCN2CC3(CC(O)C3)C2)cccc1-c1cccc(-c2ccc3c(c2)CCNC3)c1C [Compd 1.109]
14,< 1000 nM,"Cc1c(OCCCN2CCC2(C)C)cccc1-c1cccc(-c2ccc3c(c2)CCNC3)c1Cl [Compd 1.089, 6-(3′-(3-(2,2-dimethylazetidin-1-yl)propoxy)-2-chloro-2′-methyl-[1,1′-biphenyl]-3-yl)-1,2,3,4-tetrahydroisoquinoline]"
15,< 1000 nM,Cc1c(OCCCN2CCC(O)CC2)cccc1-c1cccc(-c2ccc3c(c2)CCNC3)c1C [Compd 1.111]
16,1000 to 10000 nM,Cc1c(OCCCN2CCC(F)CC2)cccc1-c1cccc(-c2ccc(CN(C)C)c(C(F)(F)F)c2)c1C [Compd 1.084]
17,1000 to 10000 nM,"Cc1ccccc1-c1cccc(-c2ccc3c(c2)CCNC3)c1C [Compd 1.117, 6-(2,2′-dimethyl-[1,1′-biphenyl]-3-yl)-1,2,3,4-tetrahydroisoquinoline]"
18,1000 to 10000 nM,CCOC(=O)CN1CCc2cc(-c3cccc(-c4cccc(OCCCN5[C@H](C)CC[C@H]5C)c4C)c3C)ccc2C1 [Compd 1.106]
19,< 1000 nM,"Cc1c(OCCCN2CCC2(C)C)cccc1-c1cccc(-c2ccc3c(c2)CCNC3)c1F [Compd 1.090, 6-(3′-(3-(2,2-dimethylazetidin-1-yl)propoxy)-2-fluoro-2′-methyl-[1,1′-biphenyl]-3-yl)-1,2,3,4-tetrahydroisoquinoline]"
20,< 1000 nM,Cc1c(-c2ccc3c(c2)CCNC3)cccc1-c1cccc(OCCCN2[C@H](C)CC[C@H]2C)c1Cl [Compd 1.092]
